{"source": "paper PMC5632672", "about": "“Generation of Persister Cells of Pseudomonas aeruginosa and Staphylococcus aureus by Chemical Treatment and Evaluation of Their Susceptibility to Membrane-Targeting Agents” (Frontiers in Microbiology, 2017)", "key": {"[1]": {"tested_on": "Pseudomonas aeruginosa ATCC 27853", "conditions": "ATCC 27853, 3 h"}, "[2]": {"tested_on": "Staphylococcus aureus ATCC 33591", "conditions": "ATCC 33591, 3 h"}}, "note": "No end group written: not given here.", "data": [{"substance": "FLPIVGLLKSLLK-NH2 [TB_L1FK]", "values": [{"measurement": "MBC, P. aeruginosa CCCP-pretreated", "setting": "[1]", "result": 14, "unit": "µM"}, {"measurement": "MBC, P. aeruginosa CCCP-untreated", "setting": "[1]", "result": 14, "unit": "µM"}, {"measurement": "MBC, S. aureus CCCP-pretreated", "setting": "[2]", "result": 3.5, "unit": "µM"}, {"measurement": "MBC, S. aureus CCCP-untreated", "setting": "[2]", "result": 7, "unit": "µM"}]}]}
